pIC50: −log10 of the molar value. Where two headings read alike, the source gives them in different places.
How the values were obtained:
[1] = tested on: NCI-H460 (large cell lung carcinoma) cells; test: antiproliferation assay (72 h, CELLTITER 96), NCI-H460; type: cell-based, human; details: Homo sapiens
Method: (§1) All of the compounds shown in Table 3-Table 8 below were prepared synthetically as described in EXAMPLE I. The compounds were tested for their ability to inhibit the proliferation of human cancer cells in vitro as described in the following paragraph. Table 3-Table 8 list the IC50 values in the M14 and NCI-H460 human cancer cell lines. IC50 is defined as the concentration of compound necessary to achieve 50% of the maximum growth inhibition.
(§2) For the antiproliferation assay, NCI-H460 (large cell lung carcinoma) or M14 (amelanotic melanoma) cells were grown in RPMI-1640 with 10% FBS supplemented with L-glutamine and HEPES. Cells were seeded into 96-well plates at 5×10^2 to 5×10^4 cells/well and allowed to adhere overnight; the medium was then removed. A stock solution of test compound in DMSO was diluted in medium to generate a series of working solutions. Aliquots (100 μl) of the working solutions were then added to the appropriate test wells to expose cells to the final concentrations of compound in a total volume of 100 μl. Seven different concentrations were tested, with 2-5 wells per concentration. Camptothecin was used as a positive control; wells containing vehicle without compound were used as negative controls. Plates were kept for 72 h in a 37° C., 5% CO2 incubator. After incubation, viable cells were detected with the CELLTITER 96 AQueous Non-Radioactive Cell Proliferation Assay (Promega), and IC50 values were determined using GraphPad Prism 5 software.

[2] = tested on: M14 (amelanotic melanoma) cells; test: antiproliferation assay (72 h, CELLTITER 96), M14; type: cell-based, human; details: Homo sapiens
Method: as §1, §2

[3] = NCI-H460, Table 5, read-out: NCI-H460 IC50
[4] = NCI-H460, Table 3, read-out: NCI-H460 IC50
[5] = NCI-H460, Table 7, read-out: NCI-H460 IC50
[6] = NCI-H460, stereoisomers of compound 4, Table 1, read-out: IC50 NCI-H460

| pIC50 [1, 4] | pIC50 ([2]; Table 3) | SMILES | also measured |
| --- | --- | --- | --- |
|  |  | C=CCC1C[C@]2([C@@H](C)Cc3cc(F)c(NC)cc3F)OCOC2=CC1=O (mixture of isomers) [Compound 45, 6-allyl-7a-(1-(2,5-difluoro-4-(methylamino)phenyl)propan-2-yl)-7,7a-dihydrobenzo[d][1,3]dioxol-5(6H)-one] | pIC50 [1, 3]: 6.47; pIC50 ([2]; Table 5): 7.01 |
| 7.11 | 7.89 | C=CC[C@H]1C[C@]2([C@H](C)Cc3ccc(OC)cc3F)OCOC2=CC1=O (relative stereo) [Compound 3, 6-allyl-7a-(1-(2-fluoro-4-methoxyphenyl)propan-2-yl)-7,7a-dihydrobenzo[d][1,3]dioxol-5(6H)-one] |  |
|  |  | C=CC[C@H]1C[C@]2([C@H](C)Cc3cc(F)c(NC)cc3F)OCOC2=CC1=O (relative stereo) [Compound 44, 6-allyl-7a-(1-(2,5-difluoro-4-(methylamino)phenyl)propan-2-yl)-7,7a-dihydrobenzo[d][1,3]dioxol-5(6H)-one] | pIC50 [1, 3]: 7.17; pIC50 ([2]; Table 5): 7.80 |
|  |  | COc1ccc(C[C@H](C)[C@]23C[C@H](CC4CC4)C(=O)C=C2OCO3)c(F)c1 (relative stereo) [Compound 63, (7aR)-6-(cyclopropylmethyl)-7a-((S)-1-(2-fluoro-4-methoxyphenyl)propan-2-yl)-7,7a-dihydrobenzo[d][1,3]dioxol-5(6H)-one] | pIC50 [1, 5]: 5.77; pIC50 ([2]; Table 7): < 4.70 |
|  |  | COc1ccc(C[C@H](C)[C@]23C[C@H](C/C=C/c4ccccc4)C(=O)C=C2OCO3)cc1OC (relative stereo) [Compound 71, (6S,7aR)-6-cinnamyl-7a-((S)-1-(3,4-dimethoxyphenyl)propan-2-yl)-7,7a-dihydrobenzo[d][1,3]dioxol-5(6H)-one] | pIC50 [1, 5]: 4.85; pIC50 ([2]; Table 7): 5.19 |
| 7.15 | 7.28 | C=CC[C@H]1C[C@]2(C(C)Cc3cc(NC(C)=O)c(OC)cc3F)OCOC2=CC1=O (stereo in doubt) [Compound 19, N-(5-((S)-2-((3aR,5S)-5-allyl-6-oxo-3a,4,5,6-tetrahydrobenzo[d][1,3]dioxol-3a-yl)propyl)-4-fluoro-2-methoxyphenyl)acetamide] |  |
| 7.48 | 8.05 | C=CC[C@H]1C[C@]2([C@@H](C)Cc3cc(O)c(OC)cc3F)OCOC2=CC1=O [Compound 5, (6S,7aR)-6-allyl-7a-((S)-1-(2-fluoro-5-hydroxy-4-methoxyphenyl)propan-2-yl)-7,7a-dihydrobenzo[d][1,3]dioxol-5(6H)-one] |  |
| 7.23 | 7.64 | C=CC[C@H]1C[C@]2([C@@H](C)Cc3cc(F)c(OC)cc3F)OCOC2=CC1=O [Compound 7, (6S,7aR)-6-allyl-7a-((S)-1-(2,5-difluoro-4-methoxyphenyl)propan-2-yl)-7,7a-dihydrobenzo[d][1,3]dioxol-5(6H)-one] |  |
| 6.19 | 6.64 | C=CC[C@H]1C[C@]2([C@@H](C)Cc3cc(C)c(OC)cc3F)OCOC2=CC1=O [Compound 8, (6S,7aR)-6-allyl-7a-((S)-1-(2-fluoro-4-methoxy-5-methylphenyl)propan-2-yl)-7,7a-dihydrobenzo[d][1,3]dioxol-5(6H)-one] |  |
| 6.59 | 6.68 | C=CC[C@H]1C[C@]2([C@H](C)Cc3cc(C(=O)OC)c(OC)cc3F)OCOC2=CC1=O [Compound 9, methyl 5-((R)-2-((3aR,5S)-5-allyl-6-oxo-3a,4,5,6-tetrahydrobenzo[d][1,3]dioxol-3a-yl)propyl)-4-fluoro-2-methoxybenzoate] |  |
| 5.66 | < 4.70 | C=CC[C@H]1C[C@]2([C@@H](C)Cc3cc(C(=O)OC)c(OC)cc3F)OCOC2=CC1=O [Compound 10, methyl 5-((S)-2-((3aR,5S)-5-allyl-6-oxo-3a,4,5,6-tetrahydrobenzo[d][1,3]dioxol-3a-yl)propyl)-4-fluoro-2-methoxybenzoate] |  |
| 6.48 | 8.40 | C=CC[C@H]1C[C@]2(C(C)Cc3cc(C(N)=O)c(OC)cc3F)OCOC2=CC1=O (stereo partly drawn) [Compound 11, 5-(2-((3aR,5S)-5-allyl-6-oxo-3a,4,5,6-tetrahydrobenzo[d][1,3]dioxol-3a-yl)propyl)-4-fluoro-2-methoxybenzamide] |  |
| 6.28 | 6.62 | C=CC[C@H]1C[C@]2([C@@H](C)Cc3cc(C(=O)NC)c(OC)cc3F)OCOC2=CC1=O [Compound 12, 5-((S)-2-((3aR,5S)-5-allyl-6-oxo-3a,4,5,6-tetrahydrobenzo[d][1,3]dioxol-3a-yl)propyl)-4-fluoro-2-methoxy-N-methylbenzamide] |  |
| 6.43 | 6.72 | C=CC[C@H]1C[C@]2([C@H](C)Cc3cc(C(=O)NC)c(OC)cc3F)OCOC2=CC1=O [Compound 13, 5-((R)-2-((3aR,5S)-5-allyl-6-oxo-3a,4,5,6-tetrahydrobenzo[d][1,3]dioxol-3a-yl)propyl)-4-fluoro-2-methoxy-N-methylbenzamide] |  |
| 6.82 | 7.43 | C=CC[C@H]1C[C@]2([C@@H](C)Cc3cc(C#N)c(OC)cc3F)OCOC2=CC1=O [Compound 14, 5-((S)-2-((3aR,5S)-5-allyl-6-oxo-3a,4,5,6-tetrahydrobenzo[d][1,3]dioxol-3a-yl)propyl)-4-fluoro-2-methoxybenzonitrile] |  |
| 6.92 | 7.85 | C=CC[C@H]1C[C@]2([C@@H](C)Cc3cc(OC)c(OC)cc3F)OCOC2=CC1=O [Compound 15, (6S,7aR)-6-allyl-7a-((S)-1-(2-fluoro-4,5-dimethoxyphenyl)propan-2-yl)-7,7a-dihydrobenzo[d][1,3]dioxol-5(6H)-one] |  |
| 6.21 | 6.28 | C=CCOc1cc(C[C@@H](C)[C@]23C[C@H](CC=C)C(=O)C=C2OCO3)c(F)cc1OC [Compound 16, (6S,7aR)-6-allyl-7a-((R)-1-(5-(allyloxy)-2-fluoro-4-methoxyphenyl)propan-2-yl)-7,7a-dihydrobenzo[d][1,3]dioxol-5(6H)-one] |  |
| 6.80 | 7.54 | C=CC[C@H]1C[C@]2([C@@H](C)Cc3cc(N)c(OC)cc3F)OCOC2=CC1=O [Compound 17, (6S,7aR)-6-allyl-7a-((S)-1-(5-amino-2-fluoro-4-methoxyphenyl)propan-2-yl)-7,7a-dihydrobenzo[d][1,3]dioxol-5(6H)-one] |  |
| 6.39 | 6.80 | C=CC[C@H]1C[C@]2([C@@H](C)Cc3cc(NC(C)=O)c(OC)cc3F)OCOC2=CC1=O [Compound 18, N-(5-((S)-2-((3aR,5S)-5-allyl-6-oxo-3a,4,5,6-tetrahydrobenzo[d][1,3]dioxol-3a-yl)propyl)-4-fluoro-2-methoxyphenyl)acetamide] |  |
|  | 6.15 | C=CC[C@H]1C[C@]2([C@@H](C)Cc3ccc(OC)c(OC)c3F)OCOC2=CC1=O [Compound 20, (6S,7aR)-6-allyl-7a-((S)-1-(2-fluoro-3,4-dimethoxyphenyl)propan-2-yl)-7,7a-dihydrobenzo[d][1,3]dioxol-5(6H)-one] |  |
| 5.52 | 5.55 | C=CC[C@H]1C[C@]2([C@H](C)Cc3ccc(OC)c(OC)c3F)OCOC2=CC1=O [Compound 21, (6S,7aR)-6-allyl-7a-((R)-1-(2-fluoro-3,4-dimethoxyphenyl)propan-2-yl)-7,7a-dihydrobenzo[d][1,3]dioxol-5(6H)-one] |  |
|  |  | C=CC[C@@H]1C[C@]2([C@H](C)Cc3cc(O)c(OC)cc3F)OCOC2=CC1=O [SQ 1378] | pIC50 [1, 6]: 5.72 |
|  |  | C=CC[C@@H]1C[C@]2([C@@H](C)Cc3cc(O)c(OC)cc3F)OCOC2=CC1=O [SQ 1389] | pIC50 [1, 6]: 5.60 |

Source: patent US9562031B1, “Phenethyldihydrobenzodioxolones and methods of use” (Sequoia Sciences, Inc., priority 2015, dated 2017)
